Source: patent US11952384B2, “Anti-tumor compound and preparation method and use thereof” (DUALITY BIOLOGICS (SUZHOU) CO., LTD., priority 2020, dated 2024)

Columns and labels:
P-gp = molecular target: T1, P-gp (Homo sapiens, UniProt P08183); experiment: Study on transporter substrates in Caco-2 cell model; type: in vitro ADME; settings: Caco-2 cell model
T1 construct: endogenous in cells; host or cells: Caco-2
Description: The resistance of each well was recorded. […] 2. […] The plate was vortexed for 10 min. The samples were centrifuged. […] HBSS was added to the basolateral compartment. […] 3. Data Analysis
Data were calculated using Microsoft Excel.

BCRP = molecular target: T2, BCRP (Homo sapiens, UniProt Q9UNQ0); experiment: as above
T2 sequence (Q9UNQ0 1-655): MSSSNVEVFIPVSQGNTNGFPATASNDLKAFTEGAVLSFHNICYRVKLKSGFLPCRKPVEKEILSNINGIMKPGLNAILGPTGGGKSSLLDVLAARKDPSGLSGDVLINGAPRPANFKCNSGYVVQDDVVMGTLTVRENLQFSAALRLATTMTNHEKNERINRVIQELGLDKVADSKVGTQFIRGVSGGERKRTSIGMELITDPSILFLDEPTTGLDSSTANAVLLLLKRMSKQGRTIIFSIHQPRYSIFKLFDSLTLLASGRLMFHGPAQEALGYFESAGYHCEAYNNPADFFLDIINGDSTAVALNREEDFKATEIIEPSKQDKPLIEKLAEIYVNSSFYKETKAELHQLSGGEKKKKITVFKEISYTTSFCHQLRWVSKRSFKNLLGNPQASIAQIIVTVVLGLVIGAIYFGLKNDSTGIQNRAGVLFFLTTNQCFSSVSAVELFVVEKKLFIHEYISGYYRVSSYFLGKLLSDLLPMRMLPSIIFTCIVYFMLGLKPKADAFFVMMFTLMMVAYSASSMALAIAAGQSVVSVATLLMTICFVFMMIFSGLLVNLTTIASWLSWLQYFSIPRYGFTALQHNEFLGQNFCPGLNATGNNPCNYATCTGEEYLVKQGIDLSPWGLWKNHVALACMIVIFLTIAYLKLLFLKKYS
Description: To investigate whether the compounds of the present invention is a substrate for efflux transporters P-gp and BCRP in a Caco-2 cell model, thereby providing preclinical basis for analyzing the drug-drug interaction in pharmacokinetics.
• 1) Cell culture medium was added to each well of the Transwell. The HTS Transwell plate was incubated under conditions of 37° C. and 5% CO2 for 1 h prior to cell inoculation. • 2) Caco-2 cells were diluted with culture medium and the cell suspension was dispensed into filter wells of the 96-well HTS Transwell plate. […] The cell culture medium was changed periodically. • 3) Monolayer cell resistance was measured using the Millicell Epithelial Volt-Ohm detection system. The resistance of each well was recorded. After all wells were measured, the Transwell plate was put back into the incubator. TEER of each well was calculated according to the formula. The TEER value of each well should be greater than 230 ohm·cm^2. […] Preparation for Transporter Test • 1) The Caco-2 plate was taken out from the incubator. The monolayer cells were washed with pre-heated HBSS twice. The plate was then incubated at 37° C. for 30 min. • 2) Stock solutions of the compounds were prepared in DMSO and diluted with HBSS to obtain working solutions. Digoxin was used as a reference substrate for P-gp and rosuvastatin was used as a reference substrate for BCRP. Propranolol was used as a high permeability marker. • 3) The working solution (without inhibitor) was added to the Transwell insert (apical compartment) to determine the rate of drug transport in the apical to basolateral direction. The transfer buffer was added to the wells in the receiver plate (basolateral compartment). The working solution (without inhibitor) was added to the receiver plate wells (basolateral compartment) to determine the rate of drug transport in the basolateral to apical direction. The Transwell insert (apical compartment) was filled with the transport buffer. PSC833 was added to the apical and basolateral compartments to determine the rate of drug transport in the presence of P-gp inhibitors. • 4) The sample was transferred from the working solution to the quenching solution, and a sample with a time of 0 was prepared. The Transwell plate was incubated under conditions of 37° C. and 5% CO2 for 2 h. • 5) At the end of the transport cycle, the samples were transferred from the apical and basolateral wells into a new 96-well plate. Cold acetonitrile or methanol containing the appropriate internal standard (IS) was added to each well of the plate. The plate was vortexed for 10 min. The samples were centrifuged. The supernatant of an aliquot was mixed with an appropriate amount of ultrapure water (depending on the LC-MS/MS signal response and peak shape) prior to the LC-MS/MS analysis. • 6) The stock solution of lucifer yellow in DMSO was prepared and diluted with HBSS to determine the amount of lucifer yellow leakage after a 2-hour transport period. The lucifer yellow solution was added to the apical compartment. HBSS was added to the basolateral compartment. The plate was incubated at 37° C. for 30 min, and a certain amount of the solution was directly taken from the apical and basolateral wells and transferred to a new 96-well plate. The lucifer yellow fluorescence was measured in a fluorescence plate reader with 485 nm excitation and 530 nm emission (to monitor monolayer integrity).
Data were calculated using Microsoft Excel. The percentage of the compound remaining at each time point was estimated by determining the peak area ratio from the extracted ion chromatogram.
For drug transport analysis in the Caco-2 cell model, the apparent permeability coefficient (Papp) can be calculated according to the following formula, in cm/s:
[formula] • wherein the concentration C is in nM, the volume V is in μL, the time T is in s, and the area S is in cm^2.
The recovery rate is calculated according to the following formula:

MDA-MB-231 cells = experiment: Inhibition of in vitro proliferation of tumor cells by compounds (CTG, 6 days); type: cell-based; settings: Homo sapiens, MDA-MB-231, 144 h, read-out: MDA-MB-231 IC50 (nM)
Description: To test the inhibitory activity of the pharmaceutical compounds on the in vitro proliferation of NCI-N87, JIMT-1 and MBA-MB-231 tumor cells. The cells were treated with compounds at different concentrations in vitro, and after 6 days of culture, the proliferation of cells was detected using CTG (CellTiter-Glo® Luminescent Cell Viability Assay, Promega, Cat. No. G7558) reagents, and the in vitro activity of the compounds was evaluated according to the IC50 value. • 1. Culturing of cells: NCI-N87/JIMT-1/MBA-MB-231 cells were cultured in RPMI-1640 medium containing 10% FBS. • 2. Preparation of cells: NCI-N87/JIMT-1/MBA-MB-231 cells in logarithmic phase were taken, washed with PBS once, and digested with 2-3 mL of trypsin for 2-3 min. After the cells were digested completely, 10-15 mL of cell culture was added to elute the digested cells. The eluate was centrifuged at 1000 rpm for 5 min, and the supernatant was discarded. The resulting cells were resuspended in 10-20 mL of cell culture to obtain a single cell suspension. • 3. Cell plating: the NCI-N87/JIMT-1/MBA-MB-231 single cell suspension was mixed well and adjusted to a viable cell density of 6×10^4 cells/mL with cell culture. The cell suspension with the adjusted density was mixed well and added to a 96-well cell culture plate at 50 μL/well. The culture plate was incubated in an incubator for 18 h (37° C., 5% CO2). • 4. Preparation of compounds: the compounds were dissolved in DMSO to obtain stock solutions at an initial concentration of 10 mM. There were 8 concentrations in total for the small molecule compounds: 300 nM, 100 nM, 30 nM, 10 nM, 3 nM, 1 nM, 0.3 nM, and 0.1 nM. • 5. Sample adding: the prepared samples to be detected at different concentrations were added to the culture plate, and two duplicate wells were set for each sample. The culture plate was incubated in an incubator for 6 days (37° C., 5% CO2). • 6. Color developing: the 96-well cell culture plate was taken out, added with the CTG reagent at 50 μL/well, and incubated at room temperature for 10 min. • 7. Plate reading: the 96-well cell culture plate was taken out, placed in a microplate reader, and measured for the chemiluminescence using the microplate reader. Data analysis: data were processed and analyzed using Microsoft Excel and Graphpad Prism 5.

JIMT-1 cells = experiment: as above; type: cell-based; settings: Homo sapiens, JIMT-1, 144 h, read-out: JIMT-1 IC50 (nM)
Description: (§1) To test the inhibitory activity of the pharmaceutical compounds on the in vitro proliferation of NCI-N87, JIMT-1 and MBA-MB-231 tumor cells. The cells were treated with the compounds at different concentrations in vitro, and after 6 days of culture, the proliferation of cells was detected using the CTG (CellTiter-Glo® Luminescent Cell Viability Assay, Promega, Cat. No. G7558) reagent, and the in vitro activity of the compounds was evaluated according to the IC50 value.
(§2) In the following, the test for the inhibition of the in vitro proliferation of NCI-N87 cells was taken as an example to illustrate the method of the present application for testing the inhibitory activity of the compounds of the present application on the in vitro proliferation of tumor cells. The method was also applicable to, but not limited to, the test for the inhibitory activity on the in vitro proliferation of other tumor cells. • 1. Culturing of cells: NCI-N87 cells were cultured in RPMI-1640 medium containing 10% FBS. • 2. Preparation of cells: NCI-N87 cells in logarithmic phase were taken, washed with PBS once, and digested with 2-3 mL of trypsin for 2-3 min. After the cells were digested completely, 10-15 mL of cell culture was added to elute the digested cells. The eluate was centrifuged at 1000 rpm for 5 min, and the supernatant was discarded. The resulting cells were resuspended in 10-20 mL of cell culture to obtain a single cell suspension. • 3. Cell plating: the NCI-N87 single cell suspension was mixed well and adjusted to a viable cell density of 6×10^4 cells/mL with cell culture. The cell suspension with the adjusted density was mixed well and added to a 96-well cell culture plate at 50 μL/well. The culture plate was incubated in an incubator for 18 h (37° C., 5% CO2). • 4. Preparation of compounds: the compounds were dissolved in DMSO to obtain stock solutions at an initial concentration of 10 mM. There were 8 concentrations in total for the small molecule compounds: 300 nM, 100 nM, 30 nM, 10 nM, 3 nM, 1 nM, 0.3 nM, and 0.1 nM. • 5. Sample adding: the prepared samples to be detected at different concentrations were added to the culture plate, and two duplicate wells were set for each sample. The culture plate was incubated in an incubator for 6 days (37° C., 5% CO2). • 6. Color developing: the 96-well cell culture plate was taken out, added with the CTG reagent at 50 μL/well, and incubated at room temperature for 10 min. • 7. Plate reading: the 96-well cell culture plate was taken out, placed in a microplate reader, and measured for the chemiluminescence using the microplate reader. Data Analysis
(§3) Data were processed and analyzed using Microsoft Excel and Graphpad Prism 5.
(§4) To test the inhibitory activity of the pharmaceutical compounds on the in vitro proliferation of NCI-N87, JIMT-1 and MBA-MB-231 tumor cells. The cells were treated with compounds at different concentrations in vitro, and after 6 days of culture, the proliferation of cells was detected using CTG (CellTiter-Glo® Luminescent Cell Viability Assay, Promega, Cat. No. G7558) reagents, and the in vitro activity of the compounds was evaluated according to the IC50 value. • 1. Culturing of cells: NCI-N87/JIMT-1/MBA-MB-231 cells were cultured in RPMI-1640 medium containing 10% FBS. • 2. Preparation of cells: NCI-N87/JIMT-1/MBA-MB-231 cells in logarithmic phase were taken, washed with PBS once, and digested with 2-3 mL of trypsin for 2-3 min. After the cells were digested completely, 10-15 mL of cell culture was added to elute the digested cells. The eluate was centrifuged at 1000 rpm for 5 min, and the supernatant was discarded. The resulting cells were resuspended in 10-20 mL of cell culture to obtain a single cell suspension. • 3. Cell plating: the NCI-N87/JIMT-1/MBA-MB-231 single cell suspension was mixed well and adjusted to a viable cell density of 6×10^4 cells/mL with cell culture. […]

NCI-N87 cells = experiment: as above; type: cell-based; settings: Homo sapiens, NCI-N87, 144 h, read-out: NCI-N87 IC50 (nM)
Description: as §1, §2, §3, §4

T1 sequence (P08183 whole entry): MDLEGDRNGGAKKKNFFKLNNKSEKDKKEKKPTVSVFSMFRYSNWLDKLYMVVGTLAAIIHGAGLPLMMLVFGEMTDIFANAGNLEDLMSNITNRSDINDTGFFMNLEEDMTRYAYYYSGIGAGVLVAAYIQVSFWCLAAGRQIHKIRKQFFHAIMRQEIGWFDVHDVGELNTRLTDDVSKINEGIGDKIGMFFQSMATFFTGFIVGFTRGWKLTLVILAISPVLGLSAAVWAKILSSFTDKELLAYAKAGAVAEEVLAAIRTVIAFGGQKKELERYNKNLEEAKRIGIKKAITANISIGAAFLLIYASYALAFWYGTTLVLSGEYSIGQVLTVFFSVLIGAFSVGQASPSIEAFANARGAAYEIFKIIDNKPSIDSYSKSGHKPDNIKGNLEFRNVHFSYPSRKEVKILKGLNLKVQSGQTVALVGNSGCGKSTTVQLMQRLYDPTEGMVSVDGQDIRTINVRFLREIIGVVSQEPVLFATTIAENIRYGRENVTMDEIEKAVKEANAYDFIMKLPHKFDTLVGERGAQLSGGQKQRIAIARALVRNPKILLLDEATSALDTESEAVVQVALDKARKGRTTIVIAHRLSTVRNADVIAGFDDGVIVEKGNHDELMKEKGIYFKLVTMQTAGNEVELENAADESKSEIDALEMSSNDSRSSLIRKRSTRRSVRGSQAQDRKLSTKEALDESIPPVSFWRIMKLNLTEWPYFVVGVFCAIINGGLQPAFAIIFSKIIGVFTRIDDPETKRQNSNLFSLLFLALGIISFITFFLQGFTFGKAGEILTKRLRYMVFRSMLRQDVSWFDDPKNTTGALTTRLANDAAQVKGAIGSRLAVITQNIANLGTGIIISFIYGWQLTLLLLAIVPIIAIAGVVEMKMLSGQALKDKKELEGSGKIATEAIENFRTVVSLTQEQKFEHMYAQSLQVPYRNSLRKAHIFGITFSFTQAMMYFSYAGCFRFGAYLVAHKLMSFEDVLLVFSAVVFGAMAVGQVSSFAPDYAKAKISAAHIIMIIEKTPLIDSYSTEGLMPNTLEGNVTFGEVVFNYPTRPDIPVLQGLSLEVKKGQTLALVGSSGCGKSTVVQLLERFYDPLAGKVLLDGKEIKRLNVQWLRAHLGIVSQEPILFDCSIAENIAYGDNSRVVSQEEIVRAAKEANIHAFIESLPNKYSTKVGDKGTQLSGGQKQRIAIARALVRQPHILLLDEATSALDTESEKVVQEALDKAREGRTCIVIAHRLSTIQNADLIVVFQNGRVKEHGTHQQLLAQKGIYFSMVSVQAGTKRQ

SMILES	IC50 (MDA-MB-231 cells) [nM]	IC50 (JIMT-1 cells) [nM]	other results
CC[C@@]1(O)C(=O)OCc2c1cc1n(c2=O)Cc2c-1nc1cc(F)c(C)c3c1c2[C@@H](NC(=O)CO)CC3 [Dxd, reference compound]	–	–	P-gp substrate (P-gp): not a transporter P-gp substrate; Recovery rate (%) AP-BL (BCRP; Caco-2, KO143 +): 76.51%; Recovery rate (%) BL-AP (BCRP; Caco-2, KO143 +): 74.87%; Efflux ratio (BCRP; Caco-2, KO143 −): 74.03; Recovery rate (%) AP-BL (BCRP; Caco-2, KO143 −): 57.76%; Recovery rate (%) BL-AP (BCRP; Caco-2, KO143 −): 56.20%; Papp (A-B) (10^−6, cm/s) (BCRP; Caco-2, KO143 −, 2 h): 0.07 10^−6, cm/s; Papp (B-A) (10^−6, cm/s) (BCRP; Caco-2, KO143 −, 2 h): 4.82 10^−6, cm/s; BCRP substrate (BCRP; Caco-2 cell model, from rate of change of efflux ratio): transporter BCRP substrate and Yes
CC[C@@]1(O)C(=O)OCc2c1cc1n(c2=O)Cc2c-1nc1cc(F)c(C)c3c1c2[C@@H](NC(=O)CS)CC3 [P-III-1, N-((1S,9S)-9-ethyl-5-fluoro-9-hydroxy-4-methyl-10,13-dioxo-2,3,9,10,13,15-hexahydro-1H,12H-benzo[de]pyrano[3′,4′:6,7]indolizino[1,2-b]quinolin-1-yl)-2-mercaptoacetamide]	28.9	–	–
CC[C@@]1(O)C(=O)OCc2c1cc1n(c2=O)Cc2c-1nc1cc(F)c(C)c3c1c2[C@@H](NC(=O)C[C@H](C)N)CC3 [P-III-28, (S)-3-amino-N-((1S,9S)-9-ethyl-5-fluoro-9-hydroxy-4-methyl-10,13-dioxo-2,3,9,10,13,15-hexahydro-1H,12H-benzo[de]pyrano[3′,4′:6,7]indolizino[1,2-b]quinolin-1-yl)butanamide]	1.2	–	–
CC[C@@]1(O)C(=O)OCc2c1cc1n(c2=O)Cc2c-1nc1cc(F)c(C)c3c1c2[C@@H](NC(=O)CCNC)CC3 [P-III-9, N-((1S,9S)-9-ethyl-5-fluoro-9-hydroxy-4-methyl-10,13-dioxo-2,3,9,10,13,15-hexahydro-1H,12H-benzo[de]pyrano[3′,4′:6,7]indolizino[1,2-b]quinolin-1-yl)-3-methylaminopropanamide]	28.9	–	–
CC[C@@]1(O)C(=O)OCc2c1cc1n(c2=O)Cc2c-1nc1cc(F)c(C)c3c1c2[C@@H](NC(=O)c1ccc(O)cn1)CC3 [P-II-24, N-((1S,9S)-9-ethyl-5-fluoro-9-hydroxy-4-methyl-10,13-dioxo-2,3,9,10,13,15-hexahydro-1H,12H-benzo[de]pyrano[3′,4′:6,7]indolizino[1,2-b]quinolin-1-yl)-5-hydroxypicolinamide]	8.5	20.8	–
CC[C@@]1(O)C(=O)OCc2c1cc1n(c2=O)Cc2c-1nc1cc(F)c(C)c3c1c2[C@@H](NC(=O)C[C@@H](N)CO)CC3 [P-III-29, (R)-3-amino-N-((1S,9S)-9-ethyl-5-fluoro-9-hydroxy-4-methyl-10,13-dioxo-2,3,9,10,13,15-hexahydro-1H,12H-benzo[de]pyrano[3′,4′:6,7]indolizino[1,2-b]quinolin-1-yl)-4-hydroxybutanamide]	8.6	16.7	–
CC[C@@]1(O)C(=O)OCc2c1cc1n(c2=O)Cc2c-1nc1cc(F)c(C)c3c1c2[C@@H](NC(=O)c1ccc(O)cc1)CC3 [P-II-23, N-((1S,9S)-9-ethyl-5-fluoro-9-hydroxy-4-methyl-10,13-dioxo-2,3,9,10,13,15-hexahydro-1H,12H-benzo[de]pyrano[3′,4′:6,7]indolizino[1,2-b]quinolin-1-yl)-4-hydroxybenzamide-1-carboxamide]	7.7	–	–
CC[C@@]1(O)C(=O)OCc2c1cc1n(c2=O)Cc2c-1nc1cc(F)c(C)c3c1c2[C@@H](NC(=O)CC(C)(C)O)CC3 [P-III-21, N-((1S,9S)-9-ethyl-5-fluoro-9-hydroxy-4-methyl-10,13-dioxo-2,3,9,10,13,15-hexahydro-1H,12H-benzo[de]pyrano[3′,4′:6,7]indolizino[1,2-b]quinolin-1-yl)-3-hydroxy-3-methylbutanamide]	2.88	2.87	IC50 (NCI-N87 cells): 4.75 nM
